Test results published in ChEMBL document CHEMBL5352486, “Design, synthesis, in vitro - In vivo biological evaluation of novel thiazolopyrimidine compounds as antileishmanial agent with PTR1 inhibition” (Eur J Med Chem, 2023).
Calls of active or inactive are those of the source. The calls are words filed in the database; no cut-off is given here.

Legend:
Conditions in all cases: time 21.0 day
Leishmania infantum [1] = experiment: Antileishmanial activity against Leishmania infantum infected in BALB/c mouse model of cutaneous leishmaniasis assessed as footpad lesion development at 50 mg/kg/day, ID administered for 21 days and measured after 2 weeks by Giemsa staining based analysis (reference value: 1.61 +/- 0.03); format: functional
Leishmania infantum [2] = experiment: Antileishmanial activity against Leishmania infantum infected in BALB/c mouse model of cutaneous leishmaniasis assessed as footpad lesion development at 50 mg/kg/day, ID administered for 21 days and measured after 4 weeks by Giemsa staining based analysis (reference value: 1.90 +/- 0.03); format: functional
Leishmania infantum [3] = experiment: Antileishmanial activity against Leishmania infantum infected in BALB/c mouse model of cutaneous leishmaniasis assessed as footpad lesion development at 50 mg/kg/day, ID administered for 21 days and measured after 6 weeks by Giemsa staining based analysis (reference value: 2.40 +/- 0.03); format: functional
Leishmania infantum [4] = experiment: Antileishmanial activity against Leishmania infantum infected in BALB/c mouse model of cutaneous leishmaniasis assessed as footpad lesion development at 50 mg/kg/day, ID administered for 21 days and measured after 8 weeks by Giemsa staining based analysis (reference value: 3.13 +/- 0.03); format: functional
Leishmania infantum [5] = experiment: Antileishmanial activity against Leishmania infantum infected in BALB/c mouse model of cutaneous leishmaniasis assessed as footpad lesion development at 50 mg/kg/day, ID administered for 21 days and measured after 10 weeks by Giemsa staining based analysis (reference value: 3.40 +/- 0.03); format: functional
Leishmania infantum [6] = experiment: Antileishmanial activity against Leishmania infantum infected in BALB/c mouse model of cutaneous leishmaniasis assessed as footpad lesion development at 50 mg/kg/day, ID administered for 21 days and measured after 12 weeks by Giemsa staining based analysis (reference value: 3.61 +/- 0.03); format: functional
Leishmania infantum [7] = experiment: Antileishmanial activity against Leishmania infantum infected in BALB/c mouse model of cutaneous leishmaniasis assessed as footpad lesion development at 50 mg/kg/day, ID administered for 21 days and measured after 14 weeks by Giemsa staining based analysis (reference value: 3.88 +/- 0.03); format: functional
Leishmania infantum [8] = experiment: Antileishmanial activity against Leishmania infantum infected in BALB/c mouse model of cutaneous leishmaniasis assessed as footpad lesion development at 50 mg/kg/day, ID administered for 21 days and measured after 16 weeks by Giemsa staining based analysis (reference value: 4.20 +/- 0.03); format: functional
Leishmania infantum [9] = experiment: Antileishmanial activity against Leishmania infantum infected in BALB/c mouse model of cutaneous leishmaniasis assessed as footpad lesion development at 50 mg/kg/day, ID administered for 21 days and measured after 18 weeks by Giemsa staining based analysis (reference value: 4.42 +/- 0.03); format: functional
Leishmania infantum [10] = experiment: Antileishmanial activity against Leishmania infantum infected in BALB/c mouse model of cutaneous leishmaniasis assessed as footpad lesion development at 50 mg/kg/day, ID administered for 21 days and measured after 20 weeks by Giemsa staining based analysis (reference value: 4.54 +/- 0.04); format: functional
Leishmania infantum [11] = experiment: Antileishmanial activity against Leishmania infantum infected in BALB/c mouse model of cutaneous leishmaniasis assessed as footpad lesion development at 50 mg/kg/day, ID administered for 21 days and measured after 22 weeks by Giemsa staining based analysis (reference value: 4.71 +/- 0.04); format: functional
Leishmania infantum [12] = experiment: Antileishmanial activity against Leishmania infantum infected in BALB/c mouse model of cutaneous leishmaniasis assessed as footpad lesion development at 50 mg/kg/day, ID administered for 21 days and measured after 24 weeks by Giemsa staining based analysis (reference value: 4.90 +/- 0.02); format: functional
Leishmania infantum [13] = experiment: Antileishmanial activity against Leishmania infantum infected in BALB/c mouse model of cutaneous leishmaniasis assessed as footpad lesion development at 50 mg/kg/day, ID administered for 21 days and measured after 26 weeks by Giemsa staining based analysis (reference value: 4.91 +/- 0.01); format: functional
Leishmania infantum [14] = experiment: Antileishmanial activity against Leishmania infantum infected in BALB/c mouse model of cutaneous leishmaniasis assessed as footpad lesion development at 50 mg/kg/day, ID administered for 21 days and measured after 28 weeks by Giemsa staining based analysis (reference value: 4.92 +/- 0.01); format: functional
Leishmania infantum [15] = experiment: Antileishmanial activity against Leishmania infantum infected in BALB/c mouse model of cutaneous leishmaniasis assessed as footpad lesion development at 50 mg/kg/day, ID administered for 21 days and measured after 30 weeks by Giemsa staining based analysis (reference value: 4.92 +/- 0.01); format: functional
Leishmania infantum [16] = experiment: Antileishmanial activity against Leishmania infantum infected in BALB/c mouse model of cutaneous leishmaniasis assessed as footpad lesion development at 50 mg/kg/day, ID administered for 21 days and measured after 32 weeks by Giemsa staining based analysis (reference value: 4.91 +/- 0.01); format: functional
Leishmania infantum [17] = experiment: Antileishmanial activity against Leishmania infantum infected in BALB/c mouse model of visceral leishmaniasis assessed as footpad lesion development at 50 mg/kg/day, IM administered for 21 days and measured after 1 week by Giemsa staining based analysis (reference value: 30.43 +/- 0.60); format: functional
Leishmania infantum [18] = experiment: Antileishmanial activity against Leishmania infantum infected in BALB/c mouse model of visceral leishmaniasis assessed as footpad lesion development at 50 mg/kg/day, IM administered for 21 days and measured after 2 weeks by Giemsa staining based analysis (reference value: 29.73 +/- 0.63); format: functional
Leishmania infantum [19] = experiment: Antileishmanial activity against Leishmania infantum infected in BALB/c mouse model of visceral leishmaniasis assessed as footpad lesion development at 50 mg/kg/day, IM administered for 21 days and measured after 3 weeks by Giemsa staining based analysis (reference value: 28.94 +/- 0.59); format: functional
Leishmania infantum [20] = experiment: Antileishmanial activity against Leishmania infantum infected in BALB/c mouse model of visceral leishmaniasis assessed as footpad lesion development at 50 mg/kg/day, IM administered for 21 days and measured after 4 weeks by Giemsa staining based analysis (reference value: 28.01 +/- 0.65); format: functional
Leishmania infantum [21] = experiment: Antileishmanial activity against Leishmania infantum infected in BALB/c mouse model of visceral leishmaniasis assessed as footpad lesion development at 50 mg/kg/day, IM administered for 21 days and measured after 5 weeks by Giemsa staining based analysis (reference value: 27.04 +/- 0.65); format: functional
Leishmania infantum [22] = experiment: Antileishmanial activity against Leishmania infantum infected in BALB/c mouse model of visceral leishmaniasis assessed as footpad lesion development at 50 mg/kg/day, IM administered for 21 days and measured after 6 weeks by Giemsa staining based analysis (reference value: 25.81 +/- 0.84); format: functional
Leishmania infantum [23] = experiment: Antileishmanial activity against Leishmania infantum infected in BALB/c mouse model of visceral leishmaniasis assessed as footpad lesion development at 50 mg/kg/day, IM administered for 21 days and measured after 7 weeks by Giemsa staining based analysis (reference value: 24.85 +/- 0.88); format: functional
Leishmania infantum [24] = experiment: Antileishmanial activity against Leishmania infantum infected in BALB/c mouse model of visceral leishmaniasis assessed as footpad lesion development at 50 mg/kg/day, IM administered for 21 days and measured after 8 weeks by Giemsa staining based analysis (reference value: 23.84 +/- 0.93); format: functional
Leishmania infantum [25] = experiment: Antileishmanial activity against Leishmania infantum infected in BALB/c mouse model of visceral leishmaniasis assessed as footpad lesion development at 50 mg/kg/day, IM administered for 21 days and measured after 9 weeks by Giemsa staining based analysis (reference value: 22.75 +/- 0.71); format: functional
Leishmania infantum [26] = experiment: Antileishmanial activity against Leishmania infantum infected in BALB/c mouse model of visceral leishmaniasis assessed as footpad lesion development at 50 mg/kg/day, IM administered for 21 days and measured after 10 weeks by Giemsa staining based analysis (reference value: 21.58 +/- 0.74); format: functional
Leishmania infantum [27] = experiment: Antileishmanial activity against Leishmania infantum infected in BALB/c mouse model of visceral leishmaniasis assessed as footpad lesion development at 50 mg/kg/day, IM administered for 21 days and measured after 11 weeks by Giemsa staining based analysis (reference value: 20.71 +/- 0.48); format: functional
Leishmania infantum [28] = experiment: Antileishmanial activity against Leishmania infantum infected in BALB/c mouse model of visceral leishmaniasis assessed as parasite growth in liver at 50 mg/kg/day, IM administered for 21 days; format: functional, organism-based
Leishmania infantum [29] = experiment: Antileishmanial activity against Leishmania infantum infected in BALB/c mouse model of visceral leishmaniasis assessed as parasite growth in spleen at 50 mg/kg/day, IM administered for 21 days; format: functional, organism-based
Leishmania infantum [30] = experiment: Antileishmanial activity against Leishmania infantum infected in BALB/c mouse model of cutaneous leishmaniasis assessed as parasite growth in liver at 50 mg/kg/day, ID administered for 21 days; format: functional, organism-based
Leishmania infantum [31] = experiment: Antileishmanial activity against Leishmania infantum infected in BALB/c mouse model of cutaneous leishmaniasis assessed as parasite growth in spleen at 50 mg/kg/day, ID administered for 21 days; format: functional, organism-based
Leishmania infantum [32] = experiment: Antileishmanial activity against Leishmania infantum infected in BALB/c mouse model of cutaneous leishmaniasis assessed as parasite growth in foodpad at 50 mg/kg/day, ID administered for 21 days; format: functional, organism-based

Question: For Meglumine antimoniate, which Activity (Leishmania infantum [1]) is on record?
Answer: The Activity was 1.56.

Question: And the Activity (Leishmania infantum [2])?
Answer: Its Activity is 1.87.

Question: What about the Activity (Leishmania infantum [3]) of the same substance?
Answer: Its Activity is 2.39.

Question: And the Activity (Leishmania infantum [4])?
Answer: Its Activity is 3.09.

Question: What about the Activity (Leishmania infantum [5]) of the same substance?
Answer: The Activity was 3.4.

Question: What about the Activity (Leishmania infantum [6]) of the same substance?
Answer: The Activity was 3.61.

Question: What about the Activity (Leishmania infantum [7]) of the same substance?
Answer: The Activity was 3.84.

Question: What about the Activity (Leishmania infantum [8]) of the same substance?
Answer: The Activity was 4.2.

Question: And the Activity (Leishmania infantum [9])?
Answer: The Activity was 4.42.

Question: What about the Activity (Leishmania infantum [10]) of the same substance?
Answer: The Activity was 4.53.

Question: What about the Activity (Leishmania infantum [11]) of the same substance?
Answer: Its Activity is 4.69.

Question: And the Activity (Leishmania infantum [12])?
Answer: Its Activity is 4.9.

Question: What about the Activity (Leishmania infantum [13]) of the same substance?
Answer: The Activity was 4.69.

Question: What about the Activity (Leishmania infantum [14]) of the same substance?
Answer: Its Activity is 3.49.

Question: And the Activity (Leishmania infantum [15])?
Answer: The Activity was 2.16.

Question: What about the Activity (Leishmania infantum [16]) of the same substance?
Answer: Its Activity is 1.7.

Question: And the Activity (Leishmania infantum [17])?
Answer: The Activity was 30.8.

Question: What about the Activity (Leishmania infantum [18]) of the same substance?
Answer: Its Activity is 29.4.

Question: What about the Activity (Leishmania infantum [19]) of the same substance?
Answer: Its Activity is 28.5.

Question: What about the Activity (Leishmania infantum [20]) of the same substance?
Answer: Its Activity is 27.4.

Question: What about the Activity (Leishmania infantum [21]) of the same substance?
Answer: Its Activity is 26.3.

Question: And the Activity (Leishmania infantum [22])?
Answer: Its Activity is 25.3.

Question: What about the Activity (Leishmania infantum [23]) of the same substance?
Answer: Its Activity is 26.7.

Question: And the Activity (Leishmania infantum [24])?
Answer: Its Activity is 27.7.

Question: And the Activity (Leishmania infantum [25])?
Answer: The Activity was 28.7.

Question: What about the Activity (Leishmania infantum [26]) of the same substance?
Answer: Its Activity is 29.3.

Question: And the Activity (Leishmania infantum [27])?
Answer: The Activity was 30.3.

Question: And the Activity (Leishmania infantum [28])?
Answer: The Activity was “Active”.

Question: And the Activity (Leishmania infantum [29])?
Answer: Its Activity is “Active”.

Question: And the Activity (Leishmania infantum [30])?
Answer: Its Activity is “Active”.

Question: What about the Activity (Leishmania infantum [31]) of the same substance?
Answer: The Activity was “Active”.

Question: And the Activity (Leishmania infantum [32])?
Answer: The Activity was “Active”.
